{
  "source": "patent US20040106135A1",
  "about": "“Assay for PPAR ligand dependent gene modulation” (priority 2002, published 2004)",
  "key": {"[1]": {"test_system": "PDK-4 mRNA in HK-2 cells (endogenous PPARα)", "test": "PDK-4 mRNA induction in HK-2 cells (real-time RT-PCR)", "format": "cell-based, human", "experimental": "Values were normalized to 18S rRNA levels.\nEC50 values were determined for PDK-4 mRNA induction by quantitative PCR under conditions used to generate the data shown in FIG. 2. EC50 values in the transactivation assays were determined by transfection of an expression plasmid encoding a GAL4-hPPARα chimera into cells co-expressing a luciferase reporter gene under the transcriptional control of GAL4 upstream activating elements.\nCell culture: The following cell lines were obtained from American Type Culture Collection (ATCC) and cultured in the recommended medium for each cell type: HepG2, HK-2, Caki-1, LNCaP (CloneFGC), SW872, and ACHN. PPARα compounds were prepared to a 500× stock in DMSO; corresponding control cells received an equal volume of vehicle (0.2% v/v).\nReal-time PCR: Fluorescence-based real-time PCR was performed essentially as described (Abbaszade et al., (1999) J. Biol. Chem. 274:23443-23450). Primers and probes designed from the hamster pyruvate dehydrogenase kinase 4 (PDK4) sequence (Genbank Accession No. AF321218), human pyruvate dehydrogenase kinase 4 (PDK-4) sequence (Genbank Accession No. NM_002612) and human adipose differentiation-related protein (ADFP) sequence (Genbank Accession No. NM_001122) were synthesized and purified by Biosearch Technologies. Probes for ADFP and PDK-4 were modified at the 5′ end with the reporter dye 6-FAM, and at the 3′ end with the quencher dye Black Hole Quencher 1 (Biosearch Technologies). Probes detecting rat 18S rRNA were modified at the 5′ end with VIC and at the 3′ end with TAMRA (Biosearch Technologies). For detection of hamster PDK4, primers 5′-[…] (SEQ ID NO:2), 5′[…] (SEQ ID NO:3), and probe 5′-[…] (SEQ ID NO:4) were used. For detection of human PDK4, primers 5′-[…] (SEQ ID NO:5), 5′-[…] (SEQ ID NO:6), and probe 5′-[…] (SEQ ID NO:7) were used. For detection of human ADFP, primers 5′-[…] (SEQ ID NO:8), 5′-[…] (SEQ ID NO:9), and probe 5′-[…] (SEQ ID NO: 10) were used. For detection of 18s rRNA, primers 5′-[…] (SEQ ID NO:11), 5′-[…] (SEQ ID NO:12), and probe 5′-[…] (SEQ ID NO:13) were used. Template cDNA was generated using the Advantage RT-PCR kit according to the manufacturer's (Clontech) instructions using random hexamers and 1 μg of DNaseI-treated total RNA. Taqman-based real-time PCR expression profiling was performed using 25 ng of each cDNA according to the manufacturer's (PE Biosystems) instructions with fluorescence being monitored in real-time with an ABI Prism 7700 (PE Biosystems). Relative expression levels were determined essentially as described (Gibson et al., (1996) Genome Res. 6:995-1001) using standard curves for each transcript. Relative abundance was then determined from these standard curves, subtracting mRNA levels obtained from negative control reactions performed in the absence of reverse transcriptase, and normalized to 18S rRNA levels. All expression measurements were performed in duplicate in two independent assays, generating a total of four measurements per cDNA."}, "[2]": {"test_system": "hamster PDK-4 mRNA in liver", "test": "PDK-4 mRNA induction in liver of fat-fed hamsters", "format": "in vivo", "conditions": "single dose (GW9578 3 mg/kg, fenofibrate 100 mg/kg, gemfibrozil 500 mg/kg), 16 hour post-treatment", "experimental": "FIG. 4A is a bar graph depicting the induction of PDK-4 mRNA in hamster liver by PPARα ligands. […] After 16 hours, the tissues were harvested, total RNA isolated and levels of hamster PDK-4 mRNA were detected by RT-PCR. The values are normalized to 18S rRNA levels. The mean and SEM of three individual animals are shown.\nPDK-4 plays a critical role in regulating glucose metabolism by phosphorylating and inactivating the pyruvate dehydrogenase complex in response to increased fatty acid oxidation. […] To investigate the response of PDK-4 to fibrate treatment in vivo, in another aspect of the present invention the fat-fed hamster model was employed, which closely mimics the serum lipid profiles of humans than other rodent models (Sullivan et al., (1993) Lab. Anim. Sci. 43:575-578). […] These doses were previously shown to yield maximal effects on blood triglycerides in hamster. […] In hamster kidney, the basal levels of PDK-4 mRNA were approximately 10-fold higher than in the liver (FIG. 4B). […] Fibrates are effective treatments for lowering serum triglyceride levels. To verify that the doses used in this study were efficacious, blood triglyceride levels were monitored over a 48 hour time course.\nReal-time PCR: Fluorescence-based real-time PCR was performed essentially as described (Abbaszade et al., (1999) J. Biol. Chem. 274:23443-23450). […] Taqman-based real-time PCR expression profiling was performed using 25 ng of each cDNA according to the manufacturer's (PE Biosystems) instructions with fluorescence being monitored in real-time with an ABI Prism 7700 (PE Biosystems). Relative expression levels were determined essentially as described (Gibson et al., (1996) Genome Res. 6:995-1001) using standard curves for each transcript. Relative abundance was then determined from these standard curves, subtracting mRNA levels obtained from negative control reactions performed in the absence of reverse transcriptase, and normalized to 18S rRNA levels. […]"}},
  "note": "pEC50: −log10 of the molar value. Where two headings read alike, the source gives them in different places.",
  "data": [
    {"smiles": "CCCCCCCN(CCc1ccc(SC(C)(C)C(=O)O)cc1)C(=O)Nc1ccc(F)cc1F", "note": "[GW9578, ureido-thioisobutyric acid]", "values": [
      {"measurement": "pEC50", "setting": "[1]; 24 hours, RT-PCR, read-out: EC50 for activation of PDK-4 in HK-2 cells", "value": "~8.00"},
      {"measurement": "Time to near maximal increase of PDK-4 mRNA", "setting": "[1]; HK-2 cells, 100 nM GW9578", "value": "≤ 2", "unit": "h"},
      {"measurement": "EC50", "setting": "[1]; PDK-4 mRNA induction by quantitative PCR, 24 hours, normalized to 18S rRNA, read-out: EC50 (μM) in HK-2 (PDK-4)", "value": 0.01, "unit": "µM"},
      {"measurement": "Induction of PDK-4 mRNA levels in the liver", "setting": "[2]", "value": 200, "unit": "fold"}
    ]}
  ]
}
